The source made the active and inactive calls.
Legend:
[1] = biological target: Matrix metalloproteinase-14 (Homo sapiens, UniProt P50281); assay: Dose Response confirmation of uHTS hits for a small molecule inhibitors of MT1-MMP activation in a fluorescence assay set 2.; type: functional
A549 = assay: A549 cell toxicity, dose response, cytotoxicity control, plate reader, cherry-pick samples (AID 687028); type: functional, cell-based; conditions: Homo sapiens
[2] = inhibitors of SNCA 5'UTR-driven reporter translation, confirmation, H4 neuroglioma cells, luminescence (AID 1988); type: functional, cell-based
[3] = HepG2 cell cytotoxicity, dose response, cytotoxicity control for Shn3 inhibitor project, CellTiter-Glo, cherry-picked (AID 624134); type: functional, cell-based
[4] = inhibitors of firefly luciferase expression or activity, dose response, H4 neuroglioma cells, luminescence (AID 1990); type: functional, cell-based
[5] = Shn3 3'UTR reporter inhibitors, dose response, cell-based, Clone20 osteoblasts, firefly luciferase, cherry-picked (AID 624132); type: functional;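 further: firefly luciferase luminescence from reporter carrying the Shn3 3'UTR in osteoblasts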
[6] = biological target: T1, Ubiquitin-conjugating enzyme E2 N (Homo sapiens, UniProt P61088); type: functional;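 further: Dose-response confirmation in a TR-FRET assay detecting UBC13-driven polyubiquitin chain formation, inhibition measured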
T1 sequence (P61088 whole entry): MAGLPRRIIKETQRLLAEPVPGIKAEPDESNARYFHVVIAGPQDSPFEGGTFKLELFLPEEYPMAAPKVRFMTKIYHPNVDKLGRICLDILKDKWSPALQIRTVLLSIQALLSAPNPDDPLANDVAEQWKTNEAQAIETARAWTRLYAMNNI

[7] = HEp-2 cell cytotoxicity, dose response, cytotoxicity control for RSV inhibitor project, HTS (AID 2410); type: functional; conditions: human respiratory syncytial virus
[8] = control 3'UTR Renilla luciferase suppression, dose response, counter-screen for Shn3 inhibitor project, cell-based, Clone20-Shn3RL, cherry-picked (AID 624133); type: functional
[9] = Luminescence Cell-Based Dose Response HTS to Identify Inhibitors of 5'UTR Stem-Loop Driven Prion Protein mRNA Translation in H4 Neuroglioblastoma Cells. [Related pubchem assays: 1827 (Project Summary), 1813 (Primary HTS)]; type: functional
[10] = biological target: Adenosylmethionine-8-amino-7-oxononanoate aminotransferase (Mycobacterium tuberculosis, UniProt P9WQ81); assay: Mycobacterium tuberculosis BioA enzyme inhibitor Measured in Biochemical System Using Plate Reader - 2163-02_Inhibitor_Dose_CherryPick_Activity.; type: functional, Mycobacterium tuberculosis UT205
Protein Wnt-3a = Protein Wnt-3a (Mus musculus, UniProt P27467); assay: Wnt3a-driven reporter signaling inhibition, dose response, selectivity assay for Gli-SUFU antagonist project, Wnt-LIGHT cells, luminescence (AID 651570); type: functional; conditions: read-out: IC50_Mean;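 further: Wnt-LIGHT reporter cells stimulated with conditioned medium from Wnt3a-producing cells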
[11] = biological target: Fructose-bisphosphate aldolase (Mycobacterium tuberculosis, UniProt P9WQA3); assay: Fluorescence-based biochemical high throughput dose response assay for inhibitors of the fructose-bisphosphate aldolase (FBA) of M. tuberculosis.; type: functional
INS1 = assay: beta cell apoptosis inhibitors, cytokine rescue, dose response, luminescence, retest (AID 449756); type: functional, cell-based; conditions: Rattus norvegicus;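 further: cell death triggered by IL-1 beta plus TNF-alpha plus IFN-gamma mixture; protective hits raise ATP signal compared with cytokine alone wells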
[12] = biological target: T2, Probable nicotinate-nucleotide adenylyltransferase (Staphylococcus aureus (strain N315), UniProt P65502); type: functional, Staphylococcus aureus subsp. aureus N315;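 on IC50 Mean: confirmatory dose-response retesting of NadD inhibitor hits first found in an ultra-high-throughput screen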
[13] = biological target: T2, Probable nicotinate-nucleotide adenylyltransferase; type: functional, Staphylococcus aureus subsp. aureus N315; conditions: read-out: IC50_Mean
BJ [14] = assay: cytotoxicity toward BJ-TERT-LT-ST fibroblasts, dose response, cell-based, RAS-independent, luminescence (AID 1935); type: functional; conditions: Homo sapiens;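 further: BJ fibroblasts immortalized with TERT plus LT and ST oncogenes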
[15] = cytotoxicity toward DRD oncogenic fibroblasts, dose response, cell-based, non-viral oncogenic, luminescence (AID 1934); type: functional; conditions: Homo sapiens
[16] = biological target: Heat shock protein HSP 90-alpha (Homo sapiens, UniProt P07900); type: functional, organism-based
[17] = Fluorescence-based cell-based high throughput dose response assay for inhibitors of the interaction of nucleotide-binding oligomerization domain containing 2 (NOD2) and the receptor-interacting serine-threonine kinase 2 (RIPK2).; type: functional; conditions: Homo sapiens
BJ [18] = assay: cytotoxicity toward BJ-TERT fibroblasts, dose response, cell-based, RAS-independent, luminescence (AID 1933); type: functional; conditions: Homo sapiens
BJ [19] = assay: cells; type: functional, cell-based; conditions: Homo sapiens
[20] = biological target: T3, Heat shock factor protein 1 (Mus musculus, UniProt P38532); assay: HSF1 potentiators in luciferase reporter cells, confirmation, cell-based, NIH3T3, luminescence, dose retest (AID 435004); type: functional;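 further: stress induced by proteasome inhibitor MG132 added 30 min after compound; luciferase reporter driven by HSF1 response element in NIH3T3 cells; actives raise luminescence as potentiators of the MG132 stress response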
T3 sequence (P38532 whole entry): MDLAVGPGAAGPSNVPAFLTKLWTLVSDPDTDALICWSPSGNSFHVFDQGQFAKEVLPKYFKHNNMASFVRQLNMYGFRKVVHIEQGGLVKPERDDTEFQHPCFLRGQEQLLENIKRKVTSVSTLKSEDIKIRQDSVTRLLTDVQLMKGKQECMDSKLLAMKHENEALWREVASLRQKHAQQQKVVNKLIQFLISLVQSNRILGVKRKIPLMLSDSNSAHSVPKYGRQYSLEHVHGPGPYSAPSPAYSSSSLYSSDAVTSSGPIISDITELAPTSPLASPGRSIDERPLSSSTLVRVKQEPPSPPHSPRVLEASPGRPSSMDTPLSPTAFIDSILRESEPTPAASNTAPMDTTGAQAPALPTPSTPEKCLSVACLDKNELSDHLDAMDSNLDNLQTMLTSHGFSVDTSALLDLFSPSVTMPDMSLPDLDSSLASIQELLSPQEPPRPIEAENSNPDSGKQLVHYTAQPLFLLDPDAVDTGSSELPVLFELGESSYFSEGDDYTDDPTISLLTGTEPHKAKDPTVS

[21] = biological target: T4, Microphthalmia-associated transcription factor (Homo sapiens, UniProt O75030); assay: TRPM1 promoter luciferase signal decrease, dose response, MITF inhibitor project, cell-based, SK-MEL-5, cherry-picked, set 3 (AID 493073); type: functional
T4 sequence (O75030 whole entry): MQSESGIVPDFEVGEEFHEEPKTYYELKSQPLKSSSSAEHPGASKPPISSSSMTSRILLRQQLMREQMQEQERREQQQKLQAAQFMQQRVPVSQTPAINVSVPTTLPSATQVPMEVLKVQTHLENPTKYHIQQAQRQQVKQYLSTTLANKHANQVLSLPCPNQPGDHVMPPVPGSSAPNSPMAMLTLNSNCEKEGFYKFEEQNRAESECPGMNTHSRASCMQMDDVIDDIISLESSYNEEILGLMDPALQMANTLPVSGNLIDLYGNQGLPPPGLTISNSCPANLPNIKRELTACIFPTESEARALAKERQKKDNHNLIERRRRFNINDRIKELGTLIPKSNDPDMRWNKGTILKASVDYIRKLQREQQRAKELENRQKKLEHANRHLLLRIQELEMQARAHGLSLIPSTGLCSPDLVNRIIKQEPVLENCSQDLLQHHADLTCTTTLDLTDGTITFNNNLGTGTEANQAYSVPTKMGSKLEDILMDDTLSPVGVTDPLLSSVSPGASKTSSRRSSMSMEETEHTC

[22] = biological target: Photoreceptor-specific nuclear receptor (Homo sapiens, UniProt Q9Y5X4); type: functional, cell-based;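 further: CHO-S cells with Gal4-NCOR and VP16-NR2E3 two-hybrid luciferase reporter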
[23] = biological target: 1-phosphatidylinositol 4,5-bisphosphate phosphodiesterase beta-3 (Homo sapiens, UniProt Q01970); assay: Fluorescence-based biochemical high throughput dose response assay to identify inhibitors of phospholipase C isozymes (PLC-B3).
[24] = biological target: T5, Small ubiquitin-related modifier 1 (Homo sapiens, UniProt P63165); assay: inhibitors of SUMO1 peptide binding, dose response, biochemical, fluorescence polarization, uHTS hits (AID 624382); type: functional; conditions: read-out: IC50_Mean
[25] = biological target: 1-phosphatidylinositol 4,5-bisphosphate phosphodiesterase gamma-1 (Homo sapiens, UniProt P19174); assay: Counterscreen for inhibitors of phospholipase C isozymes (PLC-B3): Fluorescence-based biochemical high throughput dose response assay to identify inhibitors of phospholipase C isozymes (PLC-gamma1).
[26] = biological target: T5, Small ubiquitin-related modifier 1; assay: inhibitors of SUMO1 partner interactions, dose response, biochemical, FRET (AID 624383); type: functional; conditions: read-out: IC50_Mean
[27] = biological target: T6, Oxysterols receptor LXR-beta (Homo sapiens, UniProt P55055); type: functional, cell-based;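 further: agonist activity at LXR measured by a cell-based luminescence readout across a dose range, run as a counterscreen for daf-12 agonists; HEK293 cells with Gal4-LXR fusion and GAL4-driven luciferase reporter; potency for activation of Gal4-LXR reporter so compounds are agonists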
T6 sequence (P55055 whole entry): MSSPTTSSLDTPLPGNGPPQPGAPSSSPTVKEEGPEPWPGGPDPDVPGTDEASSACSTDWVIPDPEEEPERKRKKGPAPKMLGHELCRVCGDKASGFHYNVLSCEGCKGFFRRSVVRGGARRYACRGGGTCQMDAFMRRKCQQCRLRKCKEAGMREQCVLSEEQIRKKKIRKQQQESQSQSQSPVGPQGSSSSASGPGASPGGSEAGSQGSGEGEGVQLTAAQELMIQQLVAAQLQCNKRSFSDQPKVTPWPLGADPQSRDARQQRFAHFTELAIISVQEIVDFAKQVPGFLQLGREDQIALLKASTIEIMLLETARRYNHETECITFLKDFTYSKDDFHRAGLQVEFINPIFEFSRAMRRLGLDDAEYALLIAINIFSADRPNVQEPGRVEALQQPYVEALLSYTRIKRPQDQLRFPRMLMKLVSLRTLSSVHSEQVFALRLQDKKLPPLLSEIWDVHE

[28] = A2780 ovarian cancer cell cytotoxicity, dose response, cytotoxicity control, plate reader, dry powder samples (AID 743046); type: functional, cell-based
[29] = non-specific cell cytotoxicity, dose response, cytotoxicity control for PAX8 inhibitor project, plate reader, dry powder samples (AID 743021); type: functional, cell-based
[30] = IOSE-T80 ovarian epithelial cell cytotoxicity, dose response, cytotoxicity control for PAX8 inhibitor project, plate reader, dry powder samples (AID 743045); type: functional, cell-based
[31] = IGROV1 ovarian cancer cell cytotoxicity, dose response, PAX8 inhibitor project, plate reader, dry powder samples (AID 743043); type: functional, cell-based; conditions: IGROV-1
[32] = cytotoxicity in OVCAR8 ovarian cancer cells, dose response, PAX8 project, cell-based, plate reader, dry powder samples (AID 743197); type: functional; conditions: OVCAR-8
[33] = NIH:OVCAR-3 ovarian cancer cell cytotoxicity, dose response, PAX8 inhibitor project, plate reader, dry powder samples (AID 743044); type: functional, cell-based
Paired box protein Pax-8 = Paired box protein Pax-8 (Homo sapiens, UniProt Q06710); assay: inhibitors of PAX8-driven TPO luciferase reporter, dose response, RMG-I cells, cherry-pick (AID 687027); type: functional, cell-based;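 further: luciferase reporter driven by Pax8 target thyroperoxidase promoter measured by SteadyGlo luminescence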
[34] = T. cruzi growth inhibition in host cells, dose response, cell-based, plate reader, dry powder, set 2 (AID 652275); type: functional
[35] = biological target: Potassium channel subfamily K member 3 (Homo sapiens, UniProt O14649); assay: TASK1 (KCNK3) potassium channel inhibitors, SAR follow-up, CHO cells, FluxOR thallium flux (AID 652212); type: functional
[36] = biological target: Potassium channel subfamily K member 9 (Homo sapiens, UniProt Q9NPC2); assay: TASK3 (KCNK9) channel inhibitors, thallium flux, SAR follow-up, selectivity assay for TASK1 inhibitor project, cell-based, FluxOR thallium flux, concentration-response (AID 652211); type: functional;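 further: potency is for inhibitors of the channel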
Sequence of Potassium channel subfamily K member 9 (Q9NPC2 whole entry): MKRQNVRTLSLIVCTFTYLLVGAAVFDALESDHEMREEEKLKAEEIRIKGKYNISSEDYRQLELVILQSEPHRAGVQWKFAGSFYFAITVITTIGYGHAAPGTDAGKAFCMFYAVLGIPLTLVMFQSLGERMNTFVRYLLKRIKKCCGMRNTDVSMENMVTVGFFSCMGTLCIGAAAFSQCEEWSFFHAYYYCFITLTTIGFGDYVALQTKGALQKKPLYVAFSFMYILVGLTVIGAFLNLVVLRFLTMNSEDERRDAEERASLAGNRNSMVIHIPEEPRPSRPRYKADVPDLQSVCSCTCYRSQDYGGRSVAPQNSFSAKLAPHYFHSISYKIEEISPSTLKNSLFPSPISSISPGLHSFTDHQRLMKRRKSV

T2 sequence (P65502 whole entry): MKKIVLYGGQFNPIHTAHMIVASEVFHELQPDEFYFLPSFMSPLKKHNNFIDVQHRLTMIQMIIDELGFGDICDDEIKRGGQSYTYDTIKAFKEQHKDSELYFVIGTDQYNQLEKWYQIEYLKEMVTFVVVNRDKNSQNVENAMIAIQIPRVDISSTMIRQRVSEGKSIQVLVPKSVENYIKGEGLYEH
Sequence of Protein Wnt-3a (P27467 whole entry): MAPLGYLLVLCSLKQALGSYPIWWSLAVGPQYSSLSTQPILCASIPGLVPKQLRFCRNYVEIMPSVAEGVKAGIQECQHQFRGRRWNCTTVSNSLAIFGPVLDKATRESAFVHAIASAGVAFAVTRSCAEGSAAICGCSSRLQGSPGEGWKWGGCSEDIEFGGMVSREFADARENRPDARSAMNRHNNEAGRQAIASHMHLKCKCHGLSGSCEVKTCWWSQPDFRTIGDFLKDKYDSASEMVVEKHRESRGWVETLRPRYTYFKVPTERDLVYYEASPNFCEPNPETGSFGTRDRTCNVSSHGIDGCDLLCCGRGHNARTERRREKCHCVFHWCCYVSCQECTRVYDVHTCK
T5 sequence (P63165 whole entry): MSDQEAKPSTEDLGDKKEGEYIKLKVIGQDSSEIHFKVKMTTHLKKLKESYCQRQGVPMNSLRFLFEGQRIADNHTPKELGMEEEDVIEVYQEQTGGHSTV
Sequence of Adenosylmethionine-8-amino-7-oxononanoate aminotransferase (P9WQ81 whole entry): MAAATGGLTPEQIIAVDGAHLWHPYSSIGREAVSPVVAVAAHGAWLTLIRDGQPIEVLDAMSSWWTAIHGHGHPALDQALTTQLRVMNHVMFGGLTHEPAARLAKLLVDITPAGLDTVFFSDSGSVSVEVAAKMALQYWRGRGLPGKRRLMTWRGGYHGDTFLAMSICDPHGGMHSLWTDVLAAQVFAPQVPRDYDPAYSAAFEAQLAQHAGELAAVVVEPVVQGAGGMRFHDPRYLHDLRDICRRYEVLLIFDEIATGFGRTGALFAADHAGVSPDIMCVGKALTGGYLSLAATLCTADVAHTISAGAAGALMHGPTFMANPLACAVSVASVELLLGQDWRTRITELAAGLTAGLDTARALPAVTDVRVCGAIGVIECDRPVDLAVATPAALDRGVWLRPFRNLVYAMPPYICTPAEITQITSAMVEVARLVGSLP
Sequence of Fructose-bisphosphate aldolase (P9WQA3 whole entry): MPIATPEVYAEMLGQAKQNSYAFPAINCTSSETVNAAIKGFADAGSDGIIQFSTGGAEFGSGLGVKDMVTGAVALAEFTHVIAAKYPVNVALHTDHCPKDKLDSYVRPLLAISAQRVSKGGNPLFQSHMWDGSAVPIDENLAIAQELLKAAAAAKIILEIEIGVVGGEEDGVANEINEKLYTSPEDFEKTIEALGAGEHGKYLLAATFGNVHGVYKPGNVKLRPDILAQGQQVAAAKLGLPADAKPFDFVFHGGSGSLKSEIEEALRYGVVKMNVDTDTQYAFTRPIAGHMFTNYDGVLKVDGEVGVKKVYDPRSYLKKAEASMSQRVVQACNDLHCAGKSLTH
Sequence of Photoreceptor-specific nuclear receptor (Q9Y5X4 whole entry, the tested form may be a part): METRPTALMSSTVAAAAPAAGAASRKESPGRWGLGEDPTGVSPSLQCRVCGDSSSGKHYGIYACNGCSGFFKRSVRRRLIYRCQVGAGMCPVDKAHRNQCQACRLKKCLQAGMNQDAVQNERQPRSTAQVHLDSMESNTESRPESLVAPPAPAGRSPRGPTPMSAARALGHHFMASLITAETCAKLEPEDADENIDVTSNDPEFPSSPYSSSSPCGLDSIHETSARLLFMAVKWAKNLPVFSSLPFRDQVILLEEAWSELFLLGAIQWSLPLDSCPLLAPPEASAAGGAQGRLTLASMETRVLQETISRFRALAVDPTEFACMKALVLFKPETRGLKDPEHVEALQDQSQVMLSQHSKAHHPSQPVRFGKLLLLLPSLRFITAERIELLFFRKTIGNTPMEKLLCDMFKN
Sequence of Potassium channel subfamily K member 3 (O14649 whole entry): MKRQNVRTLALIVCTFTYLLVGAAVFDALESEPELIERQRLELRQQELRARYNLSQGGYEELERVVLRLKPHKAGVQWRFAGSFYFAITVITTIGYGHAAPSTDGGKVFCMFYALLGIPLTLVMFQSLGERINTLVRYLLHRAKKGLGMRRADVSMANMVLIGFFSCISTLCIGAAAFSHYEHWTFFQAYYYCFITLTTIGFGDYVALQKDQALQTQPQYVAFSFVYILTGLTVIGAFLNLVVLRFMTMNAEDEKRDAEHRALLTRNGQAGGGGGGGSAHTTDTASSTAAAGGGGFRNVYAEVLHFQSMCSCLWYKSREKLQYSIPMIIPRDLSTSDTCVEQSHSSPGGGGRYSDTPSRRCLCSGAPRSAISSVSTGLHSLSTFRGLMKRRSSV
Sequence of Paired box protein Pax-8 (Q06710 whole entry): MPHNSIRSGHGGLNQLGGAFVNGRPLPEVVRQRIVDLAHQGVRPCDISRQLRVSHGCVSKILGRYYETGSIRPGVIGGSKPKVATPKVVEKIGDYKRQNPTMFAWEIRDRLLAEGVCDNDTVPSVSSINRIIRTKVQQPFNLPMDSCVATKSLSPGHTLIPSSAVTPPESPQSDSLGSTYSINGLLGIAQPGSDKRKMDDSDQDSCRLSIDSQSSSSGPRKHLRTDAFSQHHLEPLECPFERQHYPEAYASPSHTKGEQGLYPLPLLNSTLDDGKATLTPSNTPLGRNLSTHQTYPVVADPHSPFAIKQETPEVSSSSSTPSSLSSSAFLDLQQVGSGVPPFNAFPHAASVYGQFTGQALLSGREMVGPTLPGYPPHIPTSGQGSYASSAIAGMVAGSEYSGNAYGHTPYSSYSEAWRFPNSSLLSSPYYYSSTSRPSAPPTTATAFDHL
Sequence of 1-phosphatidylinositol 4,5-bisphosphate phosphodiesterase beta-3 (Q01970 whole entry): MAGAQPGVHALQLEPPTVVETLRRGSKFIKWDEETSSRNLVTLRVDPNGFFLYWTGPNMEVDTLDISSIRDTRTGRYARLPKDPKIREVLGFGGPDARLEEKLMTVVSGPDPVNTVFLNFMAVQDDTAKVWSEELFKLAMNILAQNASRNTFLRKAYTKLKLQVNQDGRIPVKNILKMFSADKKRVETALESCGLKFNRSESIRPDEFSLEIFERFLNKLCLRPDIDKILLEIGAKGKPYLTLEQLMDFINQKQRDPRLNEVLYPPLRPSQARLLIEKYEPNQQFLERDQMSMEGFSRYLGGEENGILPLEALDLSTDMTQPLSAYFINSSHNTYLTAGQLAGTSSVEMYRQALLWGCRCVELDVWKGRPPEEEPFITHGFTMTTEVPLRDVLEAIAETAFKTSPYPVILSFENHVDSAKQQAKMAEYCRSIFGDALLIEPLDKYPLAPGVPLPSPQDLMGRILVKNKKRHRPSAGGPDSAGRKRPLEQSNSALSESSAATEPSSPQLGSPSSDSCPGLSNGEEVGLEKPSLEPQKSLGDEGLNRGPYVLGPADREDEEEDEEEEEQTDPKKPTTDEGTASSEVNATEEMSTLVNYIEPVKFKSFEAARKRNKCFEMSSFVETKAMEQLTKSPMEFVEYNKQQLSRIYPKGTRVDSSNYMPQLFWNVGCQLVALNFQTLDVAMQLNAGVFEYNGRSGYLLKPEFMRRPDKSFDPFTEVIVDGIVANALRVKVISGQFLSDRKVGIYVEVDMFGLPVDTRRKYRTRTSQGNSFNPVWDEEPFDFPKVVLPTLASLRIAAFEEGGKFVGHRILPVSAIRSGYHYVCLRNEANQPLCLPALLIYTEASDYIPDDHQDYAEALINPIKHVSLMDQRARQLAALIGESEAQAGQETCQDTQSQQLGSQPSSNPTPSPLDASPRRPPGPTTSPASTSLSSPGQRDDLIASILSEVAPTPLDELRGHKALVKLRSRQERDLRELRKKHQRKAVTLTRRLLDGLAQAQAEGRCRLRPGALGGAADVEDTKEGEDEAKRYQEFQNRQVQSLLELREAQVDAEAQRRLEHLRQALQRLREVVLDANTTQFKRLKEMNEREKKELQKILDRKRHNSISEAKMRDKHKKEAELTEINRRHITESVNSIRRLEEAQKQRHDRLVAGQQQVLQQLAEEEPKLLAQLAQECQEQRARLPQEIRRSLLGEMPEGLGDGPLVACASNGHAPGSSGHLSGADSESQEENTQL

COc1ccc(OCC(=O)NNc2c3ccccc3nc3ccccc23)cc1
IC50 [1]: > 80 µM (inactive)

CCc1ccc(O)c(CNCCNCc2cc(CC)ccc2O)c1
AC50 (A549): 19.8 µM (active)
EC50 [2]: 9.33 µM (active)
AC50 [3]: 15.6 µM (active)
EC50 [4]: 11 µM (active)
AC50 [5]: 1.38 µM (active)
IC50 [6]: > 20 µM (inactive)
CC50 [7]: 9.08 µM (active)
AC50 [8]: 8.22 µM (active)
EC50 [9]: 12 µM (active)

CC(CNC(=O)CCCn1ncn2c(cc3occc32)c1=O)c1ccccc1 (stereo not drawn)
AC50 [10]: 0.785 µM (active)

CC1CCC(NC(=O)c2cccc(S(=O)(=O)N3CCN(c4ccccc4)CC3)c2)CC1 (stereo not drawn)
IC50 (Protein Wnt-3a): 28.3 µM (inactive)

Cc1cc(-c2ccc(Cl)cc2)n2nc(N)nc2n1
IC50 [11]: 1.4 µM (active)

CC(CC(=O)N1CCN(c2cccc(Cl)c2)CC1)S(=O)(=O)c1ccc2c(c1)NC(=O)CO2 (stereo not drawn)
AC50 [3]: 34.7 µM (active)
AC50 [5]: 3.99 µM (active)
AC50 (INS1): 5.65 µM (active)
AC50 [8]: 5.37 µM (active)
IC50 (Protein Wnt-3a): 15.1 µM (active)

CCOc1c2ccc(C(=O)NC3CCCc4ccccc43)cc2nn1CC (stereo not drawn)
IC50 [11]: 1.64 µM (active)

CCC(C)n1c(=O)c(C(=O)Nc2ccccc2S(N)(=O)=O)c(O)c2ccccc21 (stereo not drawn)
IC50 [12]: 5.92 µM (active)
IC50 [13]: 41.1 µM (active)

COc1cc2c(cc1/C=C/[N+](=O)[O-])OCO2
EC50 (BJ [14]): 8.52 µM (inconclusive)
EC50 [15]: 6.07 µM (active)
AC50 [16]: 4.25 µM (active)
IC50 [17]: 3.19 µM (active)
EC50 (BJ [18]): 8.89 µM (inconclusive)
EC50 (BJ [19]): 11.5 µM (inconclusive)
EC50 [20]: 8.55 µM (active)
AC50 [21]: 8.98 µM (active)

COc1ccc(C)cc1NC(=O)c1nnn(Cc2cccc(C(F)(F)F)c2)c1N
IC50 [22]: 39.8 µM (inactive)

Cc1ccc(-c2nn(CCC(=O)Nc3cccnc3)c(=O)c3ccccc23)cc1
AC50 [10]: 0.148 µM (active)

O=C1NC[C@@H](Cc2ccc(O)cc2)N(CCc2cc(C(F)(F)F)cc(C(F)(F)F)c2)C1=O
IC50 [23]: > 122 µM (inactive)
IC50 [24]: > 66.6 µM (inactive)
IC50 [25]: 82.2 µM (inactive)
IC50 [26]: 9.75 µM (active)

OCCN1CCN(c2cnc(-c3ccsc3)cn2)CC1
EC50 [27]: > 67.5 µM (inactive)

CS(=O)(=O)Nc1ccc2c(c1)[C@@H]1C[C@@H](CC(=O)NCc3ccc(-c4ccccc4)cc3)O[C@@H](CO)[C@@H]1O2
AC50 [28]: 17.7 µM (active)
AC50 [29]: 65.6 µM (active)
AC50 [30]: 11.7 µM (active)
AC50 [31]: 17.6 µM (active)
AC50 [32]: 16.5 µM (active)
AC50 [33]: 9.08 µM (active)
AC50 (Paired box protein Pax-8): 3.2 µM (active)

CC(=O)N1CCCCN2[C@@H](CO)[C@H](c3ccc(-c4cccc(C(=O)N(C)C)c4)cc3)[C@@H]2C1
AC50 [34]: 4.94 µM (active)

Cc1cccc(C(=O)Nc2cccc(NC(=O)c3cccc(C(F)(F)F)c3)c2)c1
IC50 [35]: 0.009 µM (active)
IC50 [36]: 3.06 µM (active)

O=C(CSc1nnc(SCc2ccccc2)s1)N/N=C/C=C/c1ccco1
IC50 [12]: 12 µM (active)
IC50 [13]: 27.6 µM (active)
